± gives the expanded uncertainty stated by the source.
Test: wn = mass fraction of the nth substance listed
Conditions: 100 kPa, Liquid; for viscosity: Falling or rolling sphere viscometry; for speed of sound: Frequency=3 MHz, Single path-length method; for mass density: Vibrating tube method

## CCCO [propan-1-ol] + O
288.15 K, w1 = 0.1
  viscosity: 1.82 ± 0.14 mPa·s
  speed of sound: 1564.4 ± 3.1 m/s
  mass density: 985.245 ± 1.4 kg/m3
288.15 K, w1 = 0.2
  viscosity: 2.723 ± 0.18 mPa·s
  speed of sound: 1587.4 ± 2.5 m/s
  mass density: 971.452 ± 1.6 kg/m3
288.15 K, w1 = 0.3
  viscosity: 3.208 ± 0.2 mPa·s
  speed of sound: 1533.5 ± 5.5 m/s
  mass density: 954.251 ± 1.9 kg/m3
288.15 K, w1 = 0.4
  viscosity: 3.575 ± 0.22 mPa·s
  speed of sound: 1485.7 ± 5.2 m/s
  mass density: 934.617 ± 2 kg/m3
293.15 K, w1 = 0.1
  viscosity: 1.545 ± 0.12 mPa·s
  speed of sound: 1570.1 ± 2.3 m/s
  mass density: 983.869 ± 1.5 kg/m3
293.15 K, w1 = 0.2
  viscosity: 2.232 ± 0.14 mPa·s
  speed of sound: 1581.6 ± 3 m/s
  mass density: 969.02 ± 1.7 kg/m3
293.15 K, w1 = 0.3
  viscosity: 2.618 ± 0.16 mPa·s
  speed of sound: 1526.5 ± 5.6 m/s
  mass density: 950.883 ± 1.9 kg/m3
293.15 K, w1 = 0.4
  viscosity: 2.92 ± 0.18 mPa·s
  speed of sound: 1477.2 ± 5.3 m/s
  mass density: 931.255 ± 2 kg/m3
298.15 K, w1 = 0.1
  viscosity: 1.333 ± 0.095 mPa·s
  speed of sound: 1574.3 ± 2 m/s
  mass density: 982.336 ± 1.6 kg/m3
298.15 K, w1 = 0.2
  viscosity: 1.852 ± 0.12 mPa·s
  speed of sound: 1575.5 ± 3.4 m/s
  mass density: 966.338 ± 1.8 kg/m3
298.15 K, w1 = 0.3
  viscosity: 2.174 ± 0.14 mPa·s
  speed of sound: 1519.6 ± 5.7 m/s
  mass density: 948.039 ± 2 kg/m3
298.15 K, w1 = 0.4
  viscosity: 2.436 ± 0.15 mPa·s
  speed of sound: 1468 ± 5.5 m/s
  mass density: 927.818 ± 2.1 kg/m3
303.15 K, w1 = 0.1
  viscosity: 1.156 ± 0.081 mPa·s
  speed of sound: 1577.4 ± 2.2 m/s
  mass density: 980.428 ± 1.7 kg/m3
303.15 K, w1 = 0.2
  viscosity: 1.567 ± 0.1 mPa·s
  speed of sound: 1569.5 ± 3.8 m/s
  mass density: 963.667 ± 1.8 kg/m3
303.15 K, w1 = 0.3
  viscosity: 1.841 ± 0.11 mPa·s
  speed of sound: 1512.6 ± 5.9 m/s
  mass density: 945.132 ± 2 kg/m3
303.15 K, w1 = 0.4
  viscosity: 2.056 ± 0.13 mPa·s
  speed of sound: 1458.6 ± 5.8 m/s
  mass density: 924.386 ± 2.1 kg/m3

## CC(C)O [propan-2-ol] + O
288.15 K, w1 = 0.1
  viscosity: 1.936 ± 0.16 mPa·s
  speed of sound: 1573.7 ± 6.8 m/s
  mass density: 983.401 ± 1.2 kg/m3
288.15 K, w1 = 0.2
  viscosity: 3.087 ± 0.21 mPa·s
  speed of sound: 1638.6 ± 2.1 m/s
  mass density: 971.675 ± 1.5 kg/m3
288.15 K, w1 = 0.3
  viscosity: 4.014 ± 0.26 mPa·s
  speed of sound: 1586.9 ± 5.5 m/s
  mass density: 954.62 ± 1.8 kg/m3
293.15 K, w1 = 0.1
  viscosity: 1.633 ± 0.13 mPa·s
  speed of sound: 1578.9 ± 5.5 m/s
  mass density: 982.158 ± 1.3 kg/m3
293.15 K, w1 = 0.2
  viscosity: 2.485 ± 0.17 mPa·s
  speed of sound: 1629.4 ± 2 m/s
  mass density: 969.345 ± 1.6 kg/m3
293.15 K, w1 = 0.3
  viscosity: 3.172 ± 0.21 mPa·s
  speed of sound: 1574.7 ± 5.8 m/s
  mass density: 951.686 ± 1.8 kg/m3
298.15 K, w1 = 0.1
  viscosity: 1.395 ± 0.11 mPa·s
  speed of sound: 1582.9 ± 4.3 m/s
  mass density: 980.642 ± 1.4 kg/m3
298.15 K, w1 = 0.2
  viscosity: 2.045 ± 0.14 mPa·s
  speed of sound: 1620.2 ± 2.3 m/s
  mass density: 966.771 ± 1.7 kg/m3
298.15 K, w1 = 0.3
  viscosity: 2.555 ± 0.16 mPa·s
  speed of sound: 1562.8 ± 6.1 m/s
  mass density: 948.106 ± 1.9 kg/m3
303.15 K, w1 = 0.1
  viscosity: 1.208 ± 0.089 mPa·s
  speed of sound: 1585.7 ± 3.2 m/s
  mass density: 978.882 ± 1.5 kg/m3
303.15 K, w1 = 0.2
  viscosity: 1.71 ± 0.11 mPa·s
  speed of sound: 1611 ± 2.7 m/s
  mass density: 964.199 ± 1.7 kg/m3
303.15 K, w1 = 0.3
  viscosity: 2.105 ± 0.13 mPa·s
  speed of sound: 1549.6 ± 6.5 m/s
  mass density: 945.121 ± 1.9 kg/m3
